Experimental data from patent US9751854B2 (Millennium Pharmaceuticals, Inc., priority 2014, dated 2017).

Target: human VPS34 (Homo sapiens (Human), UniProt Q8NEB9)
Test: Human VPS34 enzyme assay (Adapta TR-FRET ADP detection)
Format: biochemical
Parameters: Percent Inhibition: dose or concentration left out as unconfirmed
Details: for IC50: IC50 range class

Sequence of human VPS34 (Q8NEB9 whole entry): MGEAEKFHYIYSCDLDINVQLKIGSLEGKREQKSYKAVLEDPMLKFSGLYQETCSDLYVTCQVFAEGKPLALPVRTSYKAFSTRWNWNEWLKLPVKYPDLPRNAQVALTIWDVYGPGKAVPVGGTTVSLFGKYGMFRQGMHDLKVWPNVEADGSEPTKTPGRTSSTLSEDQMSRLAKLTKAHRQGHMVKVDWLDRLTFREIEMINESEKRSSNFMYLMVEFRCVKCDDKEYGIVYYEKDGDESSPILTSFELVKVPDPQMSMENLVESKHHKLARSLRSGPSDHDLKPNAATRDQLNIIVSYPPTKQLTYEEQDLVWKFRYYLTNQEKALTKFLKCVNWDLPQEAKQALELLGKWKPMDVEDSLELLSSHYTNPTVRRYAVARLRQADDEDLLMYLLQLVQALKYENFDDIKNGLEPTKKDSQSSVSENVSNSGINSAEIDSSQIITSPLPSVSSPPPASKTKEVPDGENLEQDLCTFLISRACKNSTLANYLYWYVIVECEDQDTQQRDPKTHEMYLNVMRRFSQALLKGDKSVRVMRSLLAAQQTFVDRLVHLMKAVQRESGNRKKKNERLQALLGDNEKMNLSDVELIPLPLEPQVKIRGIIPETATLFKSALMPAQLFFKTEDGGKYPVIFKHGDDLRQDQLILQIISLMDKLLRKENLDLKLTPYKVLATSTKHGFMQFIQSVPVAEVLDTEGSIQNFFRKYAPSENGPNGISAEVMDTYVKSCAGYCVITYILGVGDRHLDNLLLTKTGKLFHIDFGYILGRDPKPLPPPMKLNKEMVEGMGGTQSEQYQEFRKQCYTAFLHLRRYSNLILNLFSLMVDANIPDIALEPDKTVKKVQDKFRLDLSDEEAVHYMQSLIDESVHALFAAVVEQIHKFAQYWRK

| IC50 | Percent Inhibition | Structure (SMILES) |
| --- | --- | --- |
| 0.01 to 0.05 µM | – | O=C(c1cncc(-c2ccnc(Nc3ccnc(C4CC4)n3)c2)c1)N1CC(F)(F)C1 [Compound I-413, (2′-[(2-cyclopropylpyrimidin-4-yl)amino]-3,4′-bipyridin-5-yl)(3,3-difluoroazetidin-1-yl)methanone] |
| 0.05 to 0.1 µM | – | CC(=O)Nc1cc(-c2cnc(C)c(NS(=O)(=O)c3ccc(F)cc3F)c2)cc(C)n1 [Compound I-414, N-(5-{[(2,4-difluorophenyl)sulfonyl]amino}-6,6′-dimethyl-3,4′-bipyridin-2′-yl)acetamide] |
| 0.01 to 0.05 µM | – | Cc1nccc(Nc2cc(-c3cnc(C)c(C(=O)N4CC5(COC5)C4)c3)ccn2)n1 [Compound I-415, {6-methyl-2′-[(2-methylpyrimidin-4-yl)amino]-3,4′-bipyridin-5-yl}(2-oxa-6-azaspiro[3,3]hept-6-yl)methanone] |
| 0.01 to 0.05 µM | – | CC(=O)Nc1cc(-c2cnc(C)c(N3CC=CS3(=O)=O)c2)ccn1 [Compound I-416, N-[5-(1,1-dioxidoisothiazol-2(3H)-yl)-6-methyl-3,4′-bipyridin-2′-yl]acetamide] |
| < 0.01 µM | – | COC(=O)Nc1cc(-c2cnc(C)c(NS(=O)(=O)c3ccc(Cl)cc3F)c2)ccn1 [Compound I-417, methyl (5-{[(4-chloro-2-fluorophenyl)sulfonyl]amino}-6-methyl-3,4′-bipyridin-2′-yl)carbamate] |
| 0.01 to 0.05 µM | – | CC(=O)Nc1cc(-c2cnc(C)c(S(=O)(=O)NC34CC(C3)C4)c2)ccn1 [Compound I-418, N-[5-(bicyclo[1.1.1]pent-1-ylsulfamoyl)-6-methyl-3,4′-bipyridin-2′-yl]acetamide] |
| > 0.1 µM | – | CC(=O)Nc1cc(-c2cncc(NC(=O)c3ccc(F)cc3F)c2)ccn1 [Compound I-419, N-(2′-acetamido-3,4′-bipyridin-5-yl)-2,4-difluorobenzamide] |
| > 0.1 µM | – | CC(=O)Nc1cc(-c2cnc3c(c2)S(=O)(=O)N[C@H](c2ccccc2)CO3)ccn1 [Compound I-420, (R)-N-(4-(1,1-dioxido-3-phenyl-3,4-dihydro-2H-pyrido[2,3-b][1,4,5]oxathiazepin-8-yl)pyridin-2-yl)acetamide] |
| 0.01 to 0.05 µM | – | Cc1nccc(Nc2cc(-c3cncc(C(C)Oc4ccccc4F)c3)ccn2)n1 (stereo not shown) [Compound I-422, 5-[1-(2-fluorophenoxy)ethyl]-N-(2-methylpyrimidin-4-yl)-3,4′-bipyridin-2′-amine] |
| 0.01 to 0.05 µM | – | COc1ncc(-c2ccnc(NC(C)=O)c2)cc1C(=O)N(C)c1ccc(F)cc1F [Compound I-423, 2′-aceramido-N-(2,4-difluorophenyl)-6-methoxy-N-methyl-3,4′-bipyridine-5-carboxamide] |
| 0.01 to 0.05 µM | – | Cc1nccc(Nc2cc(-c3cnc(C)c(OCCO)c3)ccn2)n1 [Compound I-424, 2-({6-methyl-2′-[(2-methylpyrimidin-4-yl)amino]-3,4′-bipyridin-5-yl}oxy)ethanol] |
| 0.01 to 0.05 µM | – | CC(=O)Nc1cc(-c2cnc(Cl)c(N3CCCS3(=O)=O)c2C)ccn1 [Compound I-425, N-[6-chloro-5-(1,1-dioxidoisothiazolidin-2-yl)-4-methyl-3,4′-bipyridin-2′-yl]acetamide] |
| 0.01 to 0.05 µM | – | COc1ncc(-c2ccnc(NC(C)=O)c2)cc1S(=O)(=O)NC1CCC1 [Compound I-426, N-[5-(cyclobutylsulfamoyl)-6-methoxy-3,4′-bipyridin-2′-yl]acetamide] |
| < 0.01 µM | – | CN(C)S(=O)(=O)Nc1cc(-c2ccnc(Nc3ccnc(C4CC4)n3)c2)cn2nccc12 [Compound I-427, N′-(6-{2-[(2-cyclopropylpyrimidin-4-yl)amino]pyridin-4-yl}pyrazolo[1,5-a]pyridin-4-yl)-N,N-dimethylsulfuric diamide] |
| < 0.01 µM | – | CC(=O)Nc1cc(-c2cc(OS(=O)(=O)N(C)C)c3ccnn3c2)ccn1 [Compound I-428, 6-(2-acetamidopyridin-4-yl)pyrazolo[1,5-a]pyridin-4-yl dimethylsulfamate] |
| 0.01 to 0.05 µM | – | CC(=O)Nc1cc(-c2cnc(Cl)c(NS(=O)(=O)c3ccc(C#N)cc3)c2C)ccn1 [Compound I-429, N-(6-chloro-5-{[(4-cyanophenyl)sulfonyl]amino}-4-methyl-3,4′-bipyridin-2′-yl)acetamide] |
| 0.01 to 0.05 µM | – | Cc1cnc(NC(=O)C2CC2)cc1-c1cnc(Cl)c(NS(=O)(=O)c2ccc(F)cc2F)c1C [Compound I-430, N-(6-chloro-5-{[(2,4-difluorophenyl)sulfonyl]amino}-4,5′-dimethyl-3,4′-bipyridin-2′-yl)cyclopropanecarboxamide] |
| > 0.1 µM | – | CC(=O)Nc1cc(-c2cnc(C)c(C(=O)Nc3ccc(F)cc3F)c2)ccn1 [Compound I-431, 2′-acetamido-N-(2,4-difluorophenyl)-6-methyl-3,4′-bipyridine-5-carboxamide] |
| 0.01 to 0.05 µM | – | COc1ncc(-c2ccnc(NC(C)=O)c2)cc1S(=O)(=O)Nc1cc(Cl)ccc1Cl [Compound I-432, N-{5-[(2,5-dichlorophenyl)sulfamoyl]-6-methoxy-3,4′-bipyridin-2′-yl}acetamide] |
| 0.01 to 0.05 µM | – | Cc1ncc(-c2ccnc(NC(=O)C3CC3)c2)cc1NS(=O)(=O)c1ccc(Cl)cc1F [Compound I-433, N-(5-{[(4-chloro-2-fluorophenyl)sulfonyl]amino}-6-methyl-3,4′-bipyridin-2′-yl)cyclopropanecarboxamide] |

| IC50 | Percent Inhibition | Structure (SMILES) |
| --- | --- | --- |
| > 0.1 µM | – | CC(=O)Nc1cc(-c2cnc(Cl)c(C(=O)N3CCC3)c2)c(C)cn1 [Compound I-434, N-[5-(azetidin-1-ylcarbonyl)-6-chloro-5′-methyl-3,4′-bipyridin-2′-yl]acetamide] |
| < 0.01 µM | – | Cc1c(-c2ccnc(Nc3ccnc(C4CC4)n3)c2)cnc(Cl)c1NS(=O)(=O)N(C)C [Compound I-435, N′-{6-chloro-2′-[(cyclopropylpyrimidin-4-yl)amino]-4-methyl-3,4′-bipyridin-5-yl}-N,N-dimethylsulfuric diamide] |
| 0.05 to 0.1 µM | – | CNc1ncc(-c2ccnc(NC(C)=O)c2)c(C)c1S(=O)(=O)NC(C)(C)C [Compound I-436] |
| 0.01 to 0.05 µM | – | CC(=O)Nc1cc(-c2cnc(Cl)c(NS(=O)(=O)c3cccc4ncccc34)c2C)ccn1 [Compound I-437, N-{6-chloro-4-methyl-5-[(quinolin-5-ylsulfonyl)amino]-3,4′-bipyridin-2′-yl}acetamide] |
| 0.01 to 0.05 µM | – | CC(=O)Nc1cc(-c2cnc(Cl)c(S(=O)(=O)NC3CCC3)c2)ccn1 [Compound I-438, N-[6-chloro-5-(cyclobutylsulfamoyl)-3,4′-bipyridin-2′-yl]acetamide] |
| > 0.1 µM | – | Cc1nccc(Nc2cc(-c3cnc(C)c(NC(=O)Nc4ccccc4)c3)ccn2)n1 [Compound I-439, 1-{6-methyl-2′-[(2-methylpyrimidin-4-yl)amino]-3,4′-bipyridin-5-yl}-3-phenylurea] |
| > 0.1 µM | – | Cc1nccc(Nc2cc(-c3cncc(OC4CCc5c(F)cccc54)c3)ccn2)n1 (stereo not shown) [Compound I-440, 5-[(4-fluoro-2,3-dihydro-1H-inden-1-yl)oxy]-N-(2-methylpyrimidin-4-yl)-3,4′-bipyridin-2′-amine] |
| < 0.01 µM | – | Cc1ncc(-c2ccnc(NC(=O)C3CC3(F)F)c2)cc1NS(=O)(=O)c1ccc(Cl)cc1F (stereo not shown) [Compound I-441, N-(5-{[(4-chloro-2-fluorophenyl)sulfonyl]amino}-6-methyl-3,4′-bipyridin-2′-yl)-2,2-difluorocyclopropanecarboxamide] |
| 0.01 to 0.05 µM | – | COc1ncc(-c2ccnc(NC(C)=O)c2)c(C)c1S(=O)(=O)NC(C)(C)C [Compound I-442, N-[5-(tert-butylsulfamoyl)-6-methoxy-4-methyl-3,4′-bipyridin-2′-yl]acetamide] |
| 0.01 to 0.05 µM | – | CC(=O)Nc1cc(-c2cncc(S(=O)(=O)NC(C)(C)C)c2)ccn1 [Compound I-443, N-[5-(tert-butylsulfamoyl)-3,4′-bipyridin-2′-yl]acetamide] |
| 0.01 to 0.05 µM | – | CC(=O)Nc1cc(-c2cnc(Cl)c(NS(=O)(=O)c3ccc(Br)cc3F)c2C)ccn1 [Compound I-444, N-(5-{[(4-bromo-2-fluorophenyl)sulfonyl]amino}-6-chloro-4-methyl-3,4′-bipyridin-2′-yl)acetamide] |
| 0.01 to 0.05 µM | >99% | CC(=O)Nc1cc(-c2cnc(C)c(NS(=O)(=O)N3CC4CCC3C4)c2)ccn1 (stereo not shown) [Compound I-445, N-{5-[(2-azabicyclo[2.2.1]hept-2-ylsulfonyl)amino]-6-methyl-3,4′-bipyridin-2′-yl}acetamide] |
| 0.01 to 0.05 µM | – | Cc1nccc(Nc2cc(-c3cnc(C)c(OC(C)C)c3)ccn2)n1 [Compound I-446, 5-isopropoxy-6-methyl-N-(2-methylpyrimidin-4-yl)-3,4′-bipyridin-2′-amine] |
| < 0.01 µM | – | CC(=O)Nc1cc(-c2cnc(C)c(NS(=O)(=O)N3CCOCC3)c2)ccn1 [Compound I-447, N-{6-methyl-5-[(morpholin-4-ylsulfonyl)amino]-3,4′-bipyridin-2′-yl}acetamide] |
| 0.01 to 0.05 µM | – | CC(=O)Nc1cc(-c2cnc(Cl)c(N3CCCNS3(=O)=O)c2)ccn1 [Compound I-448, N-[6-chloro-5-(1,1-dioxido-1,2,6-thiadiazinan-2-yl)-3,4′-bipyridin-2′-yl]acetamide] |
| 0.01 to 0.05 µM | – | CNc1ncc(-c2ccnc(NC(C)=O)c2)cc1C(=O)N(C)C12CC(C1)C2 [Compound I-449, 2′-acetamido-N-(bicyclo[1.1.1]pent-1-yl)-N-methyl-6-(methylamino)-3,4′-bipyridine-5-carboxamide] |
| 0.01 to 0.05 µM | – | CC(=O)Nc1cc(-c2ccnc(Nc3ccnc(C)n3)c2)cn2nccc12 [Compound I-450, N-(6-{2-[(2-methylpyrimidin-4-yl)amino]pyridin-4-yl}pyrazolo[1,5-a]pyridin-4-yl)acetamide] |
| 0.01 to 0.05 µM | – | CC(=O)Nc1cc(-c2cncc(N3CCCN(C)S3(=O)=O)c2)ccn1 [Compound I-452, N-[5-(6-methyl-1,1-dioxido-1,2,6-thiadiazinan-2-yl)-3,4′-bipyridin-2′-yl]acetamide] |
| < 0.01 µM | – | Cc1nccc(Nc2cc(-c3c[n+]([O-])c(Cl)c(NS(=O)(=O)c4ccc(F)cc4F)c3C)ccn2)n1 [Compound I-454, N-(2-chloro-4-methyl-5-{2-[(2-methylpyrimidin-4-yl)amino)pyridin-4-yl}-1-oxidopyridin-3-yl)-2,4-difluorobenzenesulfonamide] |
